According to PubChem BioAssay (NCI):
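Tested at 5 concentrations; 48 h exposure; 96-well plates; endpoints linearly interpolated, else capped at highest concentration. At the GI50, growth is halved. Definition used: TGI = concentration required for complete inhibition of growth.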

How the values were obtained:
Experiment in all cases: NCI anticancer screen, dose series, 48 h
[1] = system: CAKI-1 renal
[2] = system: SF-295 CNS
[3] = system: K-562 leukemia
[4] = system: A498 renal
[5] = system: M14 melanoma
[6] = system: SK-MEL-2 melanoma
[7] = system: KM12 colon
[8] = system: HT29 colon
[9] = system: BT-549 breast
[10] = system: MALME-3M melanoma
[11] = system: T-47D breast
[12] = system: A549 NSCLC
[13] = system: SW-620 colon
[14] = system: SNB-75 CNS
[15] = system: UACC-257 melanoma
[16] = system: UO-31 renal
[17] = system: TK-10 renal
[18] = system: OVCAR-3 ovarian
[19] = system: NCI/ADR-RES ovarian
[20] = system: HS 578T breast
[21] = system: SN12C renal
[22] = system: SK-OV-3 ovarian
[23] = system: RXF 393 renal
[24] = system: CCRF-CEM leukemia
[25] = system: 786-0 renal
[26] = system: HCT-15 colon
[27] = system: SK-MEL-5 melanoma
[28] = system: NCI-H522 lung
[29] = system: OVCAR-4 ovarian
[30] = system: SF-539 CNS
[31] = system: HOP-62 NSCLC
[32] = system: UACC-62 melanoma
[33] = system: HCC-2998 colon
[34] = system: NCI-H23 lung
[35] = system: HL-60(TB) leukemia
[36] = system: LOX IMVI melanoma
[37] = system: ACHN renal
[38] = system: HOP-92 NSCLC
[39] = system: SNB-19 CNS
[40] = system: COLO 205 colon
[41] = system: U251 CNS
[42] = system: EKVX NSCLC
[43] = system: IGROV1 ovarian
[44] = system: SK-MEL-28 melanoma
[45] = system: OVCAR-5 ovarian
[46] = system: DU-145 prostate
[47] = system: RPMI-8226 leukemia
[48] = system: NCI-H226 lung
[49] = system: MOLT-4 leukemia
[50] = system: MCF7 breast
[51] = system: HCT-116 colon
[52] = system: PC-3 prostate
[53] = system: NCI-H460 lung
[54] = system: MDA-MB-231 breast
[55] = system: SF-268 CNS
[56] = system: MDA-MB-435
[57] = system: OVCAR-8 ovarian
[58] = system: SR leukemia

With `O=S(=O)(Nc1ccc(Cl)c(F)c1)c1ccc(-c2cnc(C3CC3)o2)cc1` the GI50 [1] was 360 nM, the TGI [1] was 15200 nM and the GI50 [2] was 324 nM. It also gave a TGI [2] of 2990 nM, a GI50 [3] of 210 nM and a TGI [3] greater than 65300 nM. The GI50 [4] was 232 nM, the TGI [4] was 922 nM and the GI50 [5] was 328 nM. It also gave a TGI [5] of 12900 nM, a GI50 [6] of 603 nM and a TGI [6] of 18900 nM. For the same compound, the GI50 [7] was 379 nM, the TGI [7] was 13300 nM and the GI50 [8] was 339 nM. For the same compound, the TGI [8] was 5270 nM, the GI50 [9] was 515 nM and the TGI [9] was 15400 nM. For the same compound, the GI50 [10] was 821 nM, the TGI [10] was 23400 nM and the GI50 [11] was 436 nM. It also gave a TGI [11] of 15600 nM, a GI50 [12] of 825 nM and a TGI [12] of 14700 nM. It also gave a GI50 [13] of 374 nM, a TGI [13] of 15000 nM and a GI50 [14] of 172 nM. The TGI [14] was 692 nM, the GI50 [15] was 1350 nM and the TGI [15] was 18200 nM. It also gave a GI50 [16] of 855 nM, a TGI [16] of 11900 nM and a GI50 [17] of 1550 nM. For the same compound, the TGI [17] was 12700 nM, the GI50 [18] was 357 nM and the TGI [18] was 3480 nM. It also gave a GI50 [19] of 369 nM, a TGI [19] of 7560 nM and a GI50 [20] of 355 nM. For the same compound, the TGI [20] was 8560 nM, the GI50 [21] was 808 nM and the TGI [21] was 14400 nM. The GI50 [22] was 887 nM, the TGI [22] was 18300 nM and the GI50 [23] was 282 nM. For the same compound, the TGI [23] was 2750 nM, the GI50 [24] was 382 nM and the TGI [24] was 21500 nM. The GI50 [25] was 535 nM, the TGI [25] was 16200 nM and the GI50 [26] was 332 nM. It also gave a TGI [26] of 12600 nM, a GI50 [27] of 511 nM and a TGI [27] of 11100 nM. It also gave a GI50 [28] of 192 nM, a TGI [28] of 4420 nM and a GI50 [29] of 1820 nM. It also gave a TGI [29] of 16200 nM, a GI50 [30] of 354 nM and a TGI [30] of 2780 nM. It also gave a GI50 [31] of 579 nM, a TGI [31] of 17600 nM and a GI50 [32] of 281 nM. The TGI [32] was 8000 nM, the GI50 [33] was 1720 nM and the TGI [33] was 12300 nM. The GI50 [34] was 1190 nM, the TGI [34] was 13500 nM and the GI50 [35] was 313 nM. It also gave a TGI [35] of 3800 nM, a GI50 [36] of 503 nM and a TGI [36] of 19100 nM. It also gave a GI50 [37] of 622 nM, a TGI [37] of 15800 nM and a GI50 [38] of 734 nM. For the same compound, the TGI [38] was 6610 nM, the GI50 [39] was 477 nM and the TGI [39] was 14800 nM. The GI50 [40] was 651 nM, the TGI [40] was 9700 nM and the GI50 [41] was 448 nM. The TGI [41] was 14400 nM, the GI50 [42] was 1050 nM and the TGI [42] was 14800 nM. For the same compound, the GI50 [43] was 556 nM, the TGI [43] was 15200 nM and the GI50 [44] was 1580 nM. The TGI [44] was 17400 nM, the GI50 [45] was 1610 nM and the TGI [45] was 14500 nM. For the same compound, the GI50 [46] was 1650 nM, the TGI [46] was 14700 nM and the GI50 [47] was 531 nM. For the same compound, the TGI [47] was greater than 53400 nM, the GI50 [48] was 1250 nM and the TGI [48] was 16500 nM. It also gave a GI50 [49] of 614 nM, a TGI [49] of 25000 nM and a GI50 [50] of 284 nM. The TGI [50] was 13400 nM, the GI50 [51] was 382 nM and the TGI [51] was 12700 nM. For the same compound, the GI50 [52] was 516 nM, the TGI [52] was 13900 nM and the GI50 [53] was 413 nM. The TGI [53] was 11600 nM, the GI50 [54] was 1060 nM and the TGI [54] was 11500 nM. For the same compound, the GI50 [55] was 1030 nM, the TGI [55] was 20100 nM and the GI50 [56] was 85.3 nM. It also gave a TGI [56] of 484 nM, a GI50 [57] of 1090 nM and a TGI [57] of 19800 nM. The GI50 [58] was 253 nM and the TGI [58] was greater than 43000 nM.
